# Laboratory results taken from patent US6610473B1 (priority 1999, dated 2003).
# Biological target: HPV16-E6 protein (Human papillomavirus type 16, UniProt P03126)
# Sequence (P03126 whole entry): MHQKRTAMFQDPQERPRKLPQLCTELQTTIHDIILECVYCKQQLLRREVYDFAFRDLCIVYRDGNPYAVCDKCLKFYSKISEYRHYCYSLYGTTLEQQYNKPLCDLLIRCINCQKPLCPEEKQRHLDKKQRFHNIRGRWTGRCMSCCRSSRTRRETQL
row,Substance,clones obtained in another screening assay for HPV-E6 protein-binding peptides
1,NH2-LFDIFRLCAQ PVLVHGHTRV-COOH [E61-20.pep],obtained
2,NH2-LVGRVRIGVS VFIRGGRLL-COOH [E61-19.pep],obtained
